Where two headings read alike, the source gives them in different places.
Experiments:
EGFR L858R = EGFR L858R (Homo sapiens, UniProt P00533, L858R); experiment: EGFR degradation, Total EGFR (L858R-specific) HTRF, NCI-H3255; type: cell-based; set-up: NCI-H3255 (harboring EGFR heterozygous L858R mutation); host or cells: NCI-H3255; settings: NCI-H3255 cells, 6 hours, Total EGFR HTRF, read-out: H3255 EGFR DC50
Excerpt: NCI-H1975 (harboring EGFR heterozygous L858R-T790M mutations) and NCI-H3255 (harboring EGFR heterozygous L858R mutation) were purchased from ATCC and NCI, respectively. NCI-H1975+CS (harboring EGFR heterozygous L858R-T790M-C797S mutations) was generated using CRISPR technology to introduce the additional C797S mutation by Horizon Discovery. A431 (harboring EGFR wildtype) was purchased from ATCC. RPMI 1640 no-phenol red medium and fetal bovine serum (FBS) were purchased from Gibco (Grand Island, NY, USA). Cell culture flasks and 384-well microplates were acquired from VWR (Radnor, PA, USA). Phosphorylated (pY1068) EGFR and Total EGFR (using L858R-specific detection antibody and pan-EGFR antibody for EGFR mutant cell lines and EGFR wild-type cell lines, respectively) HTRF assay kits were purchased from Cisbio (Bedford, MA, USA).
Degradation of EGFR protein containing L858R mutation or wild-type was determined based on quantification of FRET signal using a Total EGFR (L858R-specific or pan-EGFR detecting) HTRF assay kit. Phospho-EGFR (pEGFR) inhibition was determined based on quantification of FRET signal using a pY1068 EGFR HTRF assay kit. In separate assay plates, test compounds were added to the 384-well plate from a top concentration of 10 μM with 11 points, half log titration in duplicates. For each assay, 12.5 uL of cells suspended in assay media (RPMI 1640 no-phenol red medium+10% FBS) at cell densities indicated for each cell line in Table 8 below were dispensed using a multi-channel pipette to 384-well low volume white HTRF microplates containing a duplicate concentration range of test compounds and DMSO controls. The plates were kept at 37° C. with 5% CO2 for 6 hours and then incubated with either phospho EGFR or Total EGFR HTRF detection antibodies according to the cell line and EGFR mutant being assayed. Cells treated in the absence of the test compound were the negative control. Positive control was set by wells containing all reagents but no cells. FRET signal was acquired on EnVision™ Multilabel Reader (PerkinElmer, Santa Clara, CA, USA). Compound concentration that achieves 50% degradation and inhibition was reported as DC50 and IC50, respectively.

EGFR L858R-T790M = biological target: T1, EGFR L858R-T790M (Homo sapiens, UniProt P00533, L858R/T790M); experiment: EGFR degradation, Total EGFR (L858R-specific) HTRF, NCI-H1975; type: cell-based; settings: NCI-H1975 cells, 6 hours, Total EGFR HTRF, read-out: H1975 EGFR DC50
T1 construct: NCI-H1975 (harboring EGFR heterozygous L858R-T790M mutations); host or cells: NCI-H1975
In short: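 FRET signal from HTRF kits measured phospho-EGFR at pY1068 or total EGFR after 6 h treatment at 37 °C. Compounds ran as 11-point half-log dilutions from 10 μM in duplicate, in cells in phenol red-free RPMI with 10% FBS. Concentrations giving 50% inhibition or degradation were reported as IC50 or DC50.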

T1 sequence (P00533 25-1210 T790M/L858R): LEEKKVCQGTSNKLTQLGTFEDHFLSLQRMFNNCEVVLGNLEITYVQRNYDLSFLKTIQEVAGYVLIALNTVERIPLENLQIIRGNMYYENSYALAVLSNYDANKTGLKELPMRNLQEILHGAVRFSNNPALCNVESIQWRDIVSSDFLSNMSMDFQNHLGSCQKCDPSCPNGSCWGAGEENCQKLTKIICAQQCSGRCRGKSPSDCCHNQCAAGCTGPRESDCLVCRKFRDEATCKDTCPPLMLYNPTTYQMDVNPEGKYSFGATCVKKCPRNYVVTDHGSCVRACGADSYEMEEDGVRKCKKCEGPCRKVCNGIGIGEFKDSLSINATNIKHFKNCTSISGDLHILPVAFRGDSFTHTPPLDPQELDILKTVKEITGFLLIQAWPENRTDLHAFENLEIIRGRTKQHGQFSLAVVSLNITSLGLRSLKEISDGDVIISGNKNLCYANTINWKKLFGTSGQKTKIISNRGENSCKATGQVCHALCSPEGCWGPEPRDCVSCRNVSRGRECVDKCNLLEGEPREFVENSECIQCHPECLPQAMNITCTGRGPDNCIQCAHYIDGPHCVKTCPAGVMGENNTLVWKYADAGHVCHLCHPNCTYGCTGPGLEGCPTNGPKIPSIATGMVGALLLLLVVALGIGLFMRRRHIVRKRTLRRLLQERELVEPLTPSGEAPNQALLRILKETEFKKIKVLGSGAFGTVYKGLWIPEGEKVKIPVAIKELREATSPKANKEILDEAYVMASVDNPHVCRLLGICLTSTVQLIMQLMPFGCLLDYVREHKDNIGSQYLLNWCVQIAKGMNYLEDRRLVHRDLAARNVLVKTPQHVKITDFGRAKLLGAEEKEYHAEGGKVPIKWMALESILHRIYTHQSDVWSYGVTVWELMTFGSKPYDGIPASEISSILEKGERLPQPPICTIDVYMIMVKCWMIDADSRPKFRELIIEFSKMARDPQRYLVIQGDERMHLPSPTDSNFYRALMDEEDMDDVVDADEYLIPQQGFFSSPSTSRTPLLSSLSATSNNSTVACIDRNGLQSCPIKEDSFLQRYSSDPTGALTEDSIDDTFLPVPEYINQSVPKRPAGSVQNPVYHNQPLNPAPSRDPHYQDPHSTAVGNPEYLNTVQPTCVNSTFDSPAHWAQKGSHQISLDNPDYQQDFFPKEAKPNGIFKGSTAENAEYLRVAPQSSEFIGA
Chain of EGFR L858R (P00533 25-1210 L858R): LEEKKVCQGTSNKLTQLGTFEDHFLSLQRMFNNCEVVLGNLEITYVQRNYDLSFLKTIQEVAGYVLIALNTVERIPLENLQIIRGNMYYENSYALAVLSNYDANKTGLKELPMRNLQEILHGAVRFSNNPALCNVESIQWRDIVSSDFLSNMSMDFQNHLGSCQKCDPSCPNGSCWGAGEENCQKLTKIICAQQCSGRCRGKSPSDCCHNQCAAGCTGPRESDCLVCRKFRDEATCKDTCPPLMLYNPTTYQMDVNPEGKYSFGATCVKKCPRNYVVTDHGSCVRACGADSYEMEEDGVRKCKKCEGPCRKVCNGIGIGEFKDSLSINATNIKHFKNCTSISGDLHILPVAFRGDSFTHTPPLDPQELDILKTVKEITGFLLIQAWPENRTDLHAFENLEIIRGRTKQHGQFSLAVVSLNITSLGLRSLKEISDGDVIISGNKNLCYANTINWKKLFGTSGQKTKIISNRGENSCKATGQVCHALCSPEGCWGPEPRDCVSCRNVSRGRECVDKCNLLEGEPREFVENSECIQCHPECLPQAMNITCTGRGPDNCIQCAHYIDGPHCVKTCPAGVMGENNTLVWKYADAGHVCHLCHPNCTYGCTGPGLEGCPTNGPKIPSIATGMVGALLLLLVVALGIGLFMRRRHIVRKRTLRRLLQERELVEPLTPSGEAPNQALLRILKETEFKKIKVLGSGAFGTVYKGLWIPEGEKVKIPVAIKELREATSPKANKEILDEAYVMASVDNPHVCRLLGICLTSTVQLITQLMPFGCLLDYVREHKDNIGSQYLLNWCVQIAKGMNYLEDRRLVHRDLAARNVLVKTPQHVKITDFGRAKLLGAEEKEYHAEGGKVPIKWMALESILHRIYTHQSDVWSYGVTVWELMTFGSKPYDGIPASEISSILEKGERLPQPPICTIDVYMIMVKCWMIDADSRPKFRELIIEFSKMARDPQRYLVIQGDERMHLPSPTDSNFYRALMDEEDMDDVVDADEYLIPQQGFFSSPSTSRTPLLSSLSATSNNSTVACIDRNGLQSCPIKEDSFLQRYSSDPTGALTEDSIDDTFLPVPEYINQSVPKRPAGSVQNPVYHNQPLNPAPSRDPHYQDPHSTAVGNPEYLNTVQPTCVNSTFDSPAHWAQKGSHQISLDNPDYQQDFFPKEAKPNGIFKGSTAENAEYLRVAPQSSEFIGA

Compound | DC50 (EGFR L858R; Table 9A) [µM] | DC50 (EGFR L858R-T790M; Table 9A) [µM] | DC50 (EGFR L858R; Table 9B) [µM] | DC50 (EGFR L858R-T790M; Table 9B) [µM]
O=C1CC[C@H](Nc2ccc(C3CCN(CC(=O)N4CCC(n5cc(-c6cc(F)c7c(c6)C(=O)N(C(C(=O)Nc6nccs6)c6ncn8c6CCC8)C7)nn5)CC4)CC3)cc2)C(=O)N1 (stereo partly drawn) [Compound 30, 2-(6,7-Dihydro-5H-pyrrolo[1,2-c]imidazol-1-yl)-2-(6-(1-(1-(2-(4-(4-(((S)-2,6-dioxopiperidin-3-yl)amino)phenyl)piperidin-1-yl)acetyl)piperidin-4-yl)-1H-1,2,3-triazol-4-yl)-4-fluoro-1-oxoisoindolin-2-yl)-N-(thiazol-2-yl)acetamide] | < 0.05 | < 0.05 |  | 
O=C1CC[C@@H](Nc2ccc(C3CCN(C(=O)CCCN4CCN(c5ccc(-c6cc(F)c7c(c6)C(=O)N(C(C(=O)Nc6nccs6)c6ncn8c6CCC8)C7)cc5)CC4)CC3)cc2)C(=O)N1 (stereo in doubt) [Compound 176, 2-(6,7-dihydro-5H-pyrrolo[1,2-c]imidazol-1-yl)-2-(6-(4-(4-(4-(4-(4-((2,6-dioxopiperidin-3-yl)amino)phenyl)piperidin-1-yl)-4-oxobutyl)piperazin-1-yl)phenyl)-4-fluoro-1-oxoisoindolin-2-yl)-N-(thiazol-2-yl)acetamide] |  |  | < 0.05 | < 0.05
O=C1CC[C@H](Nc2ccc(C3CCN(CC(=O)N4CCC(n5cc(-c6cc(F)c7c(c6)C(=O)N(C(C(=O)Nc6nccs6)c6ncn8c6CCC8)C7)cn5)CC4)CC3)cc2)C(=O)N1 (stereo partly drawn) [Compound 28, 2-(6,7-dihydro-5H-pyrrolo[1,2-c]imidazol-1-yl)-2-[6-[1-[1-[2-[4-[4-[[(3S)-2,6-dioxo-3-piperidyl]amino]phenyl]-1-piperidyl]acetyl]-4-piperidyl]pyrazol-4-yl]-4-fluoro-1-oxo-isoindolin-2-yl]-N-thiazol-2-yl-acetamide] | < 0.05 | < 0.05 |  | 
O=C1CCC(Nc2ccc(N3CCCC(O)(CC(=O)N4CC5(C4)CN(c4ccc(-c6cc(F)c7c(c6)C(=O)N(C(C(=O)Nc6nccs6)c6ncn8c6CCC8)C7)cc4)C5)CC3)c(F)c2)C(=O)N1 (single isomer, unassigned; isomer b2) [Compound 167, 2-(6,7-dihydro-5H-pyrrolo[1,2-c]imidazol-1-yl)-2-[6-[4-[2-[2-[1-[4-[[2,6-dioxo-3-piperidyl]amino]-2-fluoro-phenyl]-4-hydroxy-azepan-4-yl]acetyl]-2,6-diazaspiro[3.3]heptan-6-yl]phenyl]-4-fluoro-1-oxo-isoindolin-2-yl]-N-thiazol-2-yl-acetamide, isomer B2] |  |  |  | 0.05 to 0.15
O=C1CCC(Nc2ccc(C3CCN(CC(=O)N4CCC(Oc5ccc(-c6cc(F)c7c(c6)C(=O)N(C(C(=O)Nc6nccs6)c6ncn8c6CCC8)C7)cc5)CC4)CC3)cc2)C(=O)N1 (stereo not shown) [Compound 31, 2-(6,7-dihydro-5H-pyrrolo[1,2-c]imidazol-1-yl)-2-[6-[4-[[1-[2-[4-[4-[(2,6-dioxo-3-piperidyl)amino]phenyl]-1-piperidyl]acetyl]-4-piperidyl]oxy]phenyl]-4-fluoro-1-oxo-isoindolin-2-yl]-N-thiazol-2-yl-acetamide] |  | < 0.05 |  | 
O=C1CC[C@H](Nc2ccc(N3CCC(O)(C(=O)N4CC5(C4)CN(c4ccc(-c6cc(F)c7c(c6)C(=O)N(C(C(=O)Nc6nccs6)c6ncn8c6CCC8)C7)cc4)C5)CC3)c(F)c2)C(=O)N1 (single isomer, unassigned; isomer 1) [Compound 146, 2-(6,7-dihydro-5H-pyrrolo[1,2-c]imidazol-1-yl)-2-[6-[4-[2-[1-[4-[[2,6-dioxo-3-piperidyl]amino]-2-fluoro-phenyl]-4-hydroxy-piperidine-4-carbonyl]-2,6-diazaspiro[3.3]heptan-6-yl]phenyl]-4-fluoro-1-oxo-isoindolin-2-yl]-N-thiazol-2-yl-acetamide, isomer 1] |  |  |  | < 0.05

Second part, the compound after the results:

DC50 (EGFR L858R; Table 9A) [µM] | DC50 (EGFR L858R-T790M; Table 9A) [µM] | DC50 (EGFR L858R; Table 9B) [µM] | DC50 (EGFR L858R-T790M; Table 9B) [µM] | Compound
< 0.05 | < 0.05 |  |  | Cn1nc(N2CCC(=O)NC2=O)c2ccc(C3CCN(CC(=O)N4CCN(c5ccc(-c6cc(F)c7c(c6)C(=O)N(C(C(=O)Nc6nccs6)c6ncn8c6C[C@@H](F)C8)C7)cc5)CC4)CC3)cc21 (stereo partly drawn) [Compound 45, 2-[6-[4-[4-[2-[4-[3-(2,4-dioxohexahydropyrimidin-1-yl)-1-methyl-indazol-6-yl]-1-piperidyl]acetyl]piperazin-1-yl]phenyl]-4-fluoro-1-oxo-isoindolin-2-yl]-2-[(6R)-6-fluoro-6,7-dihydro-5H-pyrrolo[1,2-c]imidazol-1-yl]-N-thiazol-2-yl-acetamide]
< 0.05 | < 0.05 |  |  | O=C1CCC(Nc2ccc(C3CCN(CC(=O)N4CCN(Cc5ccc(-c6cc(F)c7c(c6)C(=O)N(C(C(=O)Nc6nccs6)c6ncn8c6CCC8)C7)cc5)CC4)CC3)cc2)C(=O)N1 (stereo not shown) [Compound 6, 2-(6,7-dihydro-5H-pyrrolo[1,2-c]imidazol-1-yl)-2-[6-[4-[[4-[2-[4-[4-[(2,6-dioxo-3-piperidyl)amino]phenyl]-1-piperidyl]acetyl]piperazin-1-yl]methyl]phenyl]-4-fluoro-1-oxo-isoindolin-2-yl]-N-thiazol-2-yl-acetamide]
0.05 to 0.15 | < 0.05 |  |  | Cn1nc(N2CCC(=O)NC2=O)c2ccc(C3CCN(CC(=O)N4CCN(c5ccc(-c6cc(F)c7cn(C(C(=O)Nc8nccs8)c8ncn9c8CCC9)nc7c6)cn5)CC4)CC3)cc21 (stereo not shown) [Compound 67, 2-(6,7-dihydro-5H-pyrrolo[1,2-c]imidazol-1-yl)-2-[6-[6-[4-[2-[4-[3-(2,4-dioxohexahydropyrimidin-1-yl)-1-methyl-indazol-6-yl]-1-piperidyl]acetyl]piperazin-1-yl]-3-pyridyl]-4-fluoro-indazol-2-yl]-N-thiazol-2-yl-acetamide]
 |  | < 0.05 | < 0.05 | O=C1CC[C@@H](Nc2ccc(C3CCN(CC(=O)N4CCN(c5ccc(-c6cc(F)c7c(c6)C(=O)N(C(C(=O)Nc6nccs6)c6ncn8c6CCC8)C7)cc5)CC4)CC3)cc2)C(=O)N1 (stereo partly drawn) [Compound 175, 2-(6,7-dihydro-5H-pyrrolo[1,2-c]imidazol-1-yl)-2-[6-[4-[4-[2-[4-[4-[[(3R)-2,6-dioxo-3-piperidyl]amino]phenyl]-1-piperidyl]acetyl]piperazin-1-yl]phenyl]-4-fluoro-1-oxo-isoindolin-2-yl]-N-thiazol-2-yl-acetamide]
 |  | < 0.05 | < 0.05 | O=C1CCC(Nc2ccc(C3CCN(C(=O)CN4CCN(c5ccc(-c6cc(F)c7c(c6)C(=O)N(C(C(=O)Nc6nccs6)c6ncn8c6CCC8)C7)cc5)CC4)CC3)cc2)C(=O)N1 (stereo not shown) [Compound 178, 2-(6,7-dihydro-5H-pyrrolo[1,2-c]imidazol-1-yl)-2-(6-(4-(4-(2-(4-(4-((2,6-dioxopiperidin-3-yl)amino)phenyl)piperidin-1-yl)-2-oxoethyl)piperazin-1-yl)phenyl)-4-fluoro-1-oxoisoindolin-2-yl)-N-(thiazol-2-yl)acetamide]
 |  | < 0.05 | 0.05 to 0.15 | O=C1CC[C@H](Nc2ccc(C3CCN(CC(=O)N4C[C@H]5C[C@@H]4CN5c4ccc(-c5cc(F)c6c(c5)C(=O)N(C(C(=O)Nc5nccs5)c5ncn7c5CCC7)C6)cc4)CC3)c(F)c2)C(=O)N1 (stereo partly drawn) [Compound 80, 2-(6,7-dihydro-5H-pyrrolo[1,2-c]imidazol-1-yl)-2-(6-(4-((1R,4R)-5-(2-(4-(4-(((S)-2,6-dioxopiperidin-3-yl)amino)-2-fluorophenyl)piperidin-1-yl)acetyl)-2,5-diazabicyclo[2.2.1]heptan-2-yl)phenyl)-4-fluoro-1-oxoisoindolin-2-yl)-N-(thiazol-2-yl)acetamide]
 |  |  | > 0.15 | Cn1nc(N2CCC(=O)NC2=O)c2ccc(C3CCN(CC(=O)N4C[C@H]5C[C@@H]4CN5c4ccc(-c5cc(F)c6c(c5)C(=O)N(C(C(=O)Nc5nccs5)c5ncn7c5CCC7)C6)cc4)CC3)cc21 (stereo partly drawn) [Compound 82, 2-(6,7-dihydro-5H-pyrrolo[1,2-c]imidazol-1-yl)-2-(6-(4-((1R,4R)-5-(2-(4-(3-(2,4-dioxotetrahydropyrimidin-1(2H)-yl)-1-methyl-1H-indazol-6-yl)piperidin-1-yl)acetyl)-2,5-diazabicyclo[2.2.1]heptan-2-yl)phenyl)-4-fluoro-1-oxoisoindolin-2-yl)-N-(thiazol-2-yl)acetamide]

— patent US20240158418A1 (C4 Therapeutics, Inc., priority 2021, published 2024)
